Laboratory results from patent publication US9546194B2, “Aminosteroids for the treatment of a PTP1B associated disease” (Ohr Pharmaceutical Inc., priority 2012, dated 2017).

Tests used:
[1] = Body weight change in ob/ob mouse; type: in vivo; conditions: ob/ob mice; 5 or 10 mg/kg ip every 3 days, 4 doses; % change in body weight vs study day 0, up to 30 days
Description: (§1) To determine in vivo efficacy of the aminosteroid analogues an ob/ob (Lep^ob) mouse model was used. Ob/ob mice are extensively used for screening of antidiabetic and/or anti-obesity agents. Ob/ob mice were treated with either saline or 5 or 10 mg/kg aminosteroid analogue every 3 days for a total of 4 doses via ip injection. Body weight, glucose tolerance and fasting blood glucose levels were measured for each group during the study. Each group had at least an N of 4 animals. All reagents and lab animals are commercially available.
Starting at study day 0, body weight measurements were taken every day for each group for up to 30 days. Percent change in body weight was calculated as the fractional response of body weight on study day X over the original body weight on study day 0.

[2] = test system: ob/ob (Lep^ob) mouse; test: Fasting blood glucose (FBG) in ob/ob mouse; type: in vivo; conditions: ob/ob mice; 5 or 10 mg/kg ip every 3 days, 4 doses; study day 14 after overnight fast
Description: as §1
On study day 13, all animal groups were fasted overnight. On study day 14, 25 μL of whole blood was collected and analyzed for the glucose level (mg/dL) using a glucose analyzer.

[3] = target: T1, full length tyrosine phosphatase PTP1B (Homo sapiens, UniProt P18031); test: Inhibition of PTP1B (pNPP hydrolysis, absorbance at 405 nm); type: biochemical; conditions: 5 μM aminosteroid analogue; pNPP substrate; read-out: PTP1B % Inhib. at (5 μM)
T1 construct: purchased
T1 sequence (P18031 1-435): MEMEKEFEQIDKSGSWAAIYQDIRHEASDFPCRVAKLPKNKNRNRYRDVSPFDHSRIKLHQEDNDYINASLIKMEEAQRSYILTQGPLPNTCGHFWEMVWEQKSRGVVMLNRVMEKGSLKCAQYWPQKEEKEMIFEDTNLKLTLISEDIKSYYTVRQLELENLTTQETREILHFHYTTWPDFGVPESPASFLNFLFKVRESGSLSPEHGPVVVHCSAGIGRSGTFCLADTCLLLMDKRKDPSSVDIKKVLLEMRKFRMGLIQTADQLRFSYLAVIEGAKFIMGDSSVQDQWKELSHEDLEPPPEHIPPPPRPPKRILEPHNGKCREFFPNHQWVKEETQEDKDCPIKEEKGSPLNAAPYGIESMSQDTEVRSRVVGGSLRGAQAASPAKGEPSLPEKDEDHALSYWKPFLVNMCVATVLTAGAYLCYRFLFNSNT
Description: (§2) The aminosteroid analogues were tested for inhibition against the commercially available full length tyrosine phosphatase PTP1B. The ability of each analogue to inhibit the activity of PTP1B was measured in the presence of 5 μM of the aminosteroid analogue. The assay uses para-nitro-phenyl phosphate (pNPP), a non-specific substrate to assess phosphatase activity. Phosphatase activity was based on the ability of PTP1B to catalyze the hydrolysis of pNPP to p-nitrophenol (pNP).

[4] = target: T2, full length TCPTP (Homo sapiens, UniProt P17706); test: Inhibition of TCPTP (pNPP hydrolysis, same manner as PTP1B assay); type: biochemical; conditions: 200 μM inhibitor; pNPP substrate; read-out: TCPTP % Inhib. at (200 μM)
T2 construct: except full length TCPTP was used as the enzyme
T2 sequence (P17706 1-415): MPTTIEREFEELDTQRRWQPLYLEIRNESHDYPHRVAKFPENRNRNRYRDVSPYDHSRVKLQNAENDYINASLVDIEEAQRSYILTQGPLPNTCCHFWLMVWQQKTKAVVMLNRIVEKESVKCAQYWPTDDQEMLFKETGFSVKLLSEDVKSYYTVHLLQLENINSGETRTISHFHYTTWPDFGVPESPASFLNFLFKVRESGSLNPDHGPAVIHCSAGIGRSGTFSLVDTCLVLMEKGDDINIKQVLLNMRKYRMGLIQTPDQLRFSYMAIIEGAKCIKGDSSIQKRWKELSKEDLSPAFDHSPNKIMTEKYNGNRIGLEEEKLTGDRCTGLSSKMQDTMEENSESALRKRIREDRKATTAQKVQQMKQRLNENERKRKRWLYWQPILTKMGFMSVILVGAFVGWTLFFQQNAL
Description: as §2
The aminosteroid analogues were also tested for their ability to inhibit the tyrosine phosphatase TCPTP as an indication of their potential toxicity by the inhibition of the immune response. The TCPTP inhibition assay was done in the same manner as the PTP1B assay except full length TCPTP was used as the enzyme and the inhibitor was at a concentration of 200 μM. The results of the TCPTP inhibition assays are shown in Table 1, column 4 and show three compounds that inhibit TCPTP less than 50% even at a […] greater concentration.

[5] = test system: ob/ob (Lep^ob) mouse; test: Oral glucose tolerance test (OGTT) in ob/ob mouse; type: in vivo; conditions: ob/ob mice; for change in vivo: Mus musculus, 336 h, 5 or 10 mg/kg ip every 3 days, 4 doses, OGTT study day 14, 1.5 g/kg oral glucose, 0-120 min, read-out: AbAUC % Change From Saline; for reduction in AbAUC compared to saline control (significance): OGTT study day 14, p<0.05
Description: as §1
On study day 14, an oral glucose tolerance test (OGTT) was performed to assess glucose tolerance. At time 0, an oral glucose challenge (1.5 g/kg) was administered by oral gavage. At time points 0, 15, 30, 60, 90, and 120 min post glucose load, 25 μl of whole blood was withdrawn from the tail vein of the animal and the glucose level was measured using a glucose analyzer. The glucose concentration vs time was plotted and the above baseline area under the curve (AbAUC) of the glucose excursion time curve was determined using trapezoidal rule analyses.

Compound	% BW Nader [1]	FBG % Change From Saline [2]	inhibition at 5 µM [3]	inhibition at 200 µM [4]	change in vivo [5]	reduction in AbAUC compared to saline control (significance) [5]
COC(=O)CC[C@@H](C)[C@H]1CCC2C3C[C@@H](O)[C@H]4C[C@H](NCCNC(C)C)CC[C@]4(C)C3CC[C@@]21C (some centres unmarked) [MSI-2514]	−1.5%	9.2%	96%	30%	-11.6%	–
COC(=O)CC[C@@H](C)[C@H]1CCC2C3C(CC[C@@]21C)[C@@]1(C)CC[C@H](NCCNC(C)C)C[C@H]1C[C@H]3O (some centres unmarked) [MSI-2520]	0.5%	34.7%	103%	19%	-30.1%	significant reduction
COC(=O)CC[C@@H](C)[C@H]1CCC2C3C(CC[C@@]21C)[C@@]1(C)CCC(NCCNC(C)C)C[C@@H]1C[C@H]3NS(C)(=O)=O (some centres unmarked) [MSI-2527]	0.0%	32.2%	102%	15%	-33%	significant reduction
COC(=O)CC[C@@H](C)[C@H]1CCC2C3C(CC[C@@]21C)[C@@]1(C)CC[C@H](NCCNC(C)C)C[C@@H]1C[C@H]3NC(C)=O (some centres unmarked) [MSI-2532]	−0.8%	−0.7%	53%	4%	-56.6%	significant reduction
